# Entries after “also recorded” stand apart in the source; their conditions may differ.
# Key:
# Type in all cases: in vivo, dogs
# [1] = Example 7: injection site abnormalities after IVP dosing (VCOG CTCAE); set-up: key to VCOG CTCAE Magnitude of injection site abnormality: Grade 1: Mild; asymptomatic or mild symptoms; clinical signs or diagnostic observations only; intervention not indicated; key to VCOG CTCAE Relationship to IVP of injection site abnormality: Unrelated: Clearly not related to IVP; Unlikely: Doubtfully related to IVP; Possible: May be related to IVP; Probably: Likely related to IVP; Definite: Clearly related to IVP
# Excerpt: Injection site abnormalities were reported within the immediate post-injection period for six cases. […] An analgesic was prescribed to start on day 0 for one of the six cases (SI-11). […] The VCOG CTCAE classifications of these injection site abnormalities for magnitude and relationship to IVP as determined by the investigator are listed in Table 35.
# [2] = Example 2: serum biochemistry and haematology
# Excerpt: Individual blood samples were collected from the dogs into gel separated plain vacuettes at intervals outlined in Table 12. Plain blood samples were submitted on ice bricks by express courier to the local IDEXX laboratory which performed detailed biochemical analysis. Analysis included creatinine, protein, albumin, globulin, alkaline phosphatase, AST, gamma GT, creatine kinase, cholesterol, magnesium, calcium, phosphate, sodium, potassium, chloride, ALT, glucose, urea, amylase, bilirubin and triglycerides.
# Individual blood samples were collected from the dogs into anti-coagulated (EDTA and sodium citrate) vacutainers at intervals outlined in Table 12. Blood samples were then be submitted on ice bricks by express courier to the local IDEXX laboratory, which performed detailed haematological analysis. Analysis included red blood cell count, white cell count, packed cell volume, mean corpuscular volume, mean corpuscular haemoglobin, mean corpuscular haemoglobin concentration, white cell differential count, platelets, haemoglobin, reticulocytes, PT and APTT.
# [3] = Example 2: body weights, clinical examinations and adverse events (VCOG-CTCAE); set-up: key to Local swelling at treatment site: VCOG-CTCAE Grade classification / Pain associated with treatment site: VCOG-CTCAE Grade classification / Transient tachypnoea: VCOG-CTCAE Grade classification / Transient lethargy: VCOG-CTCAE Grade classification / Transient tachycardia: VCOG-CTCAE Grade classification / Transient elevated blood pressure reading: VCOG-CTCAE Grade classification / Transient salivation: VCOG-CTCAE Grade classification / Emesis: VCOG-CTCAE Grade classification / Wound sinus: VCOG-CTCAE Grade classification: ‘mild’ VCOG-CTCAE classification Grade 1 with no intervention required
# Protocol: Body weights were collected on each enrolled dog at screening, immediately pre-treatment, at approximately 24 hours, 48 hours post-treatment, and at 7(+1) days, 14(+1) days and 21(+2) days post treatment. The percent bodyweight change is calculated as the difference between immediate pre-treatment and Day 21 (+2) post-treatment values. A positive value indicates weight gain, a negative value indicates weight loss.
# Clinical parameters such as rectal temperature (° C.), heart rate (HR) per minute, respiratory rate (RR) per minute, capillary refill time (CRT) (sec), systolic and diastolic blood pressure (mmHg), and mucosal colour were collected on each enrolled dog at screening, immediately pre-treatment, at approximately 24 hours, 48 hours post-treatment, and at 7(±1), 14(±1) and 21(±2) days post treatment. With each parameter evaluated for trends over time, and in context with all other contemporaneously collected parameters, the clinical parameter data is deemed unremarkable for all trial dogs.
# Dogs were evaluated for adverse events (AEs) on Days 0 (pre-treatment), 1, 2, 7(±1), 14(±1) and 21(±2) as well as interim timepoints if needed. An AE was defined as any unfavorable and unintended sign, symptom, or disease temporally associated with the use of Compound 1, whether or not related to the product (VCOG-CTCAE 2011).
# [4] = immediate post-injection period
# [5] = cohort 3, 0.2 mg/mL, out of 7 dogs
structure (smiles),measurement,setting,value
"C/C=C(\C)C(=O)O[C@@H]1[C@@H](C)[C@@]2(O)[C@H]([C@@H]3C(C)(C)[C@]13OC(=O)[C@@H](C)CC)[C@@H]1O[C@]1(CO)[C@@H](O)[C@]1(O)C(=O)C(C)=C[C@H]12 [Compound 1, 12-tigloyl-13-(2-methylbutanoyl)-6,7-epoxy-4,5,9,12,13,20-hexahydroxy-1-tigliaen-3-one]",Number of cases with injection site abnormalities in the immediate post-injection period,[1]; 11 cases,six
same,Number of cases that exhibited restlessness,[1]; [4],three
same,Number of cases that experienced pain,[1]; [4],Three
same,Day by which injection site abnormalities resolved,[1]; pain and restlessness,≤ 1 days
same,VCOG CTCAE Relationship to IVP of injection site abnormality,"[1]; per case, as determined by the investigator",Definite; also recorded: Possible; also recorded: Probable
same,VCOG CTCAE Magnitude of injection site abnormality,"[1]; per case, immediate post-injection period",Grade 1^f
same,Anaemia during the course of the study,[2]; all cohorts,No dog exhibited anaemia
same,Bleeding disorder during the course of the study,[2]; all cohorts,No dog exhibited a bleeding disorder
same,Haematology observations,[2]; all cohorts,fairly unremarkable
same,Number of dogs with slightly elevated reticulocyte counts post treatment,[2]; all cohorts (27 dogs),7
same,Serum biochemistry observations,"[2]; all cohorts, exceptions dogs GCV-204 (AST, CK) and NVC-307 (transient AST, ALT)",fairly unremarkable
same,Number of dogs with slightly lower platelet counts post treatment,[2]; platelets described as ‘clumping’,5
same,Pain associated with treatment site: Incidence (%),"[3]; Grade 1, all patients (n = 27)",14.8%
same,Pain associated with treatment site: No. of events,"[3]; Grade 1, all patients (n = 27)",4
same,Pain associated with treatment site (oral analgesic): Incidence (%),"[3]; Grade 2, all patients (n = 27)",22.2%
same,Pain associated with treatment site (oral analgesic): No. of events,"[3]; Grade 2, all patients (n = 27)",6
same,Bilateral otitis externa (oral antibiotic): Incidence (%),[3]; all patients (n = 27),3.7%
same,Bilateral otitis externa (oral antibiotic): No. of events,[3]; all patients (n = 27),1
same,Bilateral otitis externa (oral antibiotic): VCOG-CTCAE Grade classification,[3]; all patients (n = 27),2
same,Corneal ulcer (antibiotic ointment and oral analgesic): Incidence (%),[3]; all patients (n = 27),3.7%
same,Corneal ulcer (antibiotic ointment and oral analgesic): No. of events,[3]; all patients (n = 27),1
same,Corneal ulcer (antibiotic ointment and oral analgesic): VCOG-CTCAE Grade classification,[3]; all patients (n = 27),2
same,Emesis: Incidence (%),[3]; all patients (n = 27),7.4%
same,Emesis: No. of events,[3]; all patients (n = 27),2
same,Emesis: VCOG-CTCAE Grade classification,[3]; all patients (n = 27),1
same,Flatulence (oral antibiotic): Incidence (%),[3]; all patients (n = 27),3.7%
same,Flatulence (oral antibiotic): No. of events,[3]; all patients (n = 27),1
same,Flatulence (oral antibiotic): VCOG-CTCAE Grade classification,[3]; all patients (n = 27),2
same,Local swelling at treatment site: Incidence (%),[3]; all patients (n = 27),81.5%
same,Local swelling at treatment site: No. of events,[3]; all patients (n = 27),22
same,Local swelling at treatment site: VCOG-CTCAE Grade classification,[3]; all patients (n = 27),1
same,Number of AEs of ‘mild’ VCOG-CTCAE Grade 1 (no intervention required),[3]; all patients (n = 27),52
same,Number of AEs requiring minimal medical intervention or additional analgesic therapy,[3]; all patients (n = 27),12
same,Pain associated with treatment site (oral analgesic): VCOG-CTCAE Grade classification,[3]; all patients (n = 27),2
same,Seborrhoea (oral antibiotic): Incidence (%),[3]; all patients (n = 27),3.7%
same,Seborrhoea (oral antibiotic): No. of events,[3]; all patients (n = 27),1
same,Seborrhoea (oral antibiotic): VCOG-CTCAE Grade classification,[3]; all patients (n = 27),2
same,Transient elevated blood pressure reading: Incidence (%),[3]; all patients (n = 27),3.7%
same,Transient elevated blood pressure reading: No. of events,[3]; all patients (n = 27),1
same,Transient elevated blood pressure reading: VCOG-CTCAE Grade classification,[3]; all patients (n = 27),1
same,Transient lethargy: Incidence (%),[3]; all patients (n = 27),18.5%
same,Transient lethargy: No. of events,[3]; all patients (n = 27),5
same,Transient lethargy: VCOG-CTCAE Grade classification,[3]; all patients (n = 27),1
same,Transient salivation: Incidence (%),[3]; all patients (n = 27),3.7%
same,Transient salivation: No. of events,[3]; all patients (n = 27),1
same,Transient salivation: VCOG-CTCAE Grade classification,[3]; all patients (n = 27),1
same,Transient tachycardia: Incidence (%),[3]; all patients (n = 27),7.4%
same,Transient tachycardia: No. of events,[3]; all patients (n = 27),2
same,Transient tachycardia: VCOG-CTCAE Grade classification,[3]; all patients (n = 27),1
same,Transient tachypnoea: Incidence (%),[3]; all patients (n = 27),51.9%
same,Transient tachypnoea: No. of events,[3]; all patients (n = 27),14
same,Transient tachypnoea: VCOG-CTCAE Grade classification,[3]; all patients (n = 27),1
same,Wound infection (oral antibiotic): Incidence (%),[3]; all patients (n = 27),7.4%
same,Wound infection (oral antibiotic): No. of events,[3]; all patients (n = 27),2
same,Wound infection (oral antibiotic): VCOG-CTCAE Grade classification,[3]; all patients (n = 27),2
same,Wound sinus: Incidence (%),[3]; all patients (n = 27),3.7%
same,Wound sinus: No. of events,[3]; all patients (n = 27),1
same,Wound sinus: VCOG-CTCAE Grade classification,[3]; all patients (n = 27),1
same,Total number of AEs identified,"[3]; all patients (n = 27), 15 event types",64
same,"Clinical parameter data (temperature, HR, RR, CRT, blood pressure, mucosal colour)","[3]; all trial dogs, screening to Day 21",unremarkable
same,Number of dogs that lost weight,"[3]; cohort 1, 1.0 mg/mL",3
same,Number of dogs that gained weight during the trial,"[3]; cohort 1, 1.0 mg/mL, out of 10 dogs, pre-treatment to Day 21",6
same,Largest recorded weight loss,"[3]; cohort 1, dog NVC-103",3.9%
same,Number of dogs that lost body weight,"[3]; cohort 2, 0.5 mg/mL, out of 10 dogs",9
same,Largest recorded weight loss,"[3]; cohort 2, dog GCV-204",5.6%
same,Number of dogs that gained weight,[3]; [5],3
same,Number of dogs that lost weight,[3]; [5],4
same,Largest recorded weight loss,"[3]; cohort 3, dog NVC-304",9.2%
same,Body weight gain,"[3]; dog NVC-102, cohort 1",15%
same,Pain associated with treatment site: VCOG-CTCAE Grade classification,"[3]; no intervention, all patients (n = 27)",1

# From patent US20190160035A1, “METHOD OF TREATMENT” (QBIOTICS LIMITED, priority 2016, published 2019)
